Holding throughout (assay): Dundee kinase panel
Holding throughout (type): biochemical
Common to all, as to conditions: for remaining activity at 1 µM: read-out: residual activity

The target of one assay is T1, FGF-R1 (Homo sapiens, UniProt P11362).
T1 construct: lines 1-140) and Reaction Biology
Here is the method:
(§1) Compounds were screened at 1 μM. For key hits, pIC50 values were then determined by HTRF as above. […] Stability in mouse and human liver microsomes was determined by Cyprotex.

The next assay concerns the target T2, JNK3 (Homo sapiens, UniProt P53779).
T2 construct: lines 1-140) and Reaction Biology
How it is done:
as §1

For the next assay, the target named is T3, MST2 (Homo sapiens, UniProt Q13188).
T3 construct: lines 1-140) and Reaction Biology
T3 sequence (Q13188 1-491): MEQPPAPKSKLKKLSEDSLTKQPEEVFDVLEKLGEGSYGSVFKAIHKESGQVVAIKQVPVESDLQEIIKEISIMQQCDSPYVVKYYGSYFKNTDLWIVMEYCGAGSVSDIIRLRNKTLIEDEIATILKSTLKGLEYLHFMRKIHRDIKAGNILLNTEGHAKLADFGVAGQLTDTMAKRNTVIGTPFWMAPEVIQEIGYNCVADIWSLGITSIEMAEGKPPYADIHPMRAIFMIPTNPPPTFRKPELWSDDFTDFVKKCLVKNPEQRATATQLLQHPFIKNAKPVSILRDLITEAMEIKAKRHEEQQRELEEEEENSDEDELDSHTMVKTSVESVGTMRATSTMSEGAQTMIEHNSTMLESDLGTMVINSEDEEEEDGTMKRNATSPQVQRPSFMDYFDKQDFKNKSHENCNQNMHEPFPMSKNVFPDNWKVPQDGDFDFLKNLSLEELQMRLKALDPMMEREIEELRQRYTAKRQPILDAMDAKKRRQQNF
Here is the method:
as §1

The target in another assay is T4, NEK2a (Homo sapiens, UniProt P51955).
T4 construct: lines 1-140) and Reaction Biology
T4 sequence (P51955 1-445): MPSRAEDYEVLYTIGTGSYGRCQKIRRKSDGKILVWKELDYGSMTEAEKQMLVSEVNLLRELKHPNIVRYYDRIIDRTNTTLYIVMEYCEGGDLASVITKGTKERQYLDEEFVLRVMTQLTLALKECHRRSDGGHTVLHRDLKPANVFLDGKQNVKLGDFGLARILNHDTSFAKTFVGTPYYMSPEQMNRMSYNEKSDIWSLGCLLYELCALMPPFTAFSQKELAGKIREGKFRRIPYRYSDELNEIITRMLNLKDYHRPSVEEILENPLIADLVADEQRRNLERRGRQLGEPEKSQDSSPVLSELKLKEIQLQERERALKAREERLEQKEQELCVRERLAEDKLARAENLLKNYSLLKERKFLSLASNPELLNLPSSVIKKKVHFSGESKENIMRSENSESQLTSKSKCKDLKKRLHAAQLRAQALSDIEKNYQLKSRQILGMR
How it is done:
as §1

The next assay has as its target T5, PKD1 (Homo sapiens, UniProt Q15139).
T5 construct: lines 1-140) and Reaction Biology
T5 sequence (Q15139 1-912): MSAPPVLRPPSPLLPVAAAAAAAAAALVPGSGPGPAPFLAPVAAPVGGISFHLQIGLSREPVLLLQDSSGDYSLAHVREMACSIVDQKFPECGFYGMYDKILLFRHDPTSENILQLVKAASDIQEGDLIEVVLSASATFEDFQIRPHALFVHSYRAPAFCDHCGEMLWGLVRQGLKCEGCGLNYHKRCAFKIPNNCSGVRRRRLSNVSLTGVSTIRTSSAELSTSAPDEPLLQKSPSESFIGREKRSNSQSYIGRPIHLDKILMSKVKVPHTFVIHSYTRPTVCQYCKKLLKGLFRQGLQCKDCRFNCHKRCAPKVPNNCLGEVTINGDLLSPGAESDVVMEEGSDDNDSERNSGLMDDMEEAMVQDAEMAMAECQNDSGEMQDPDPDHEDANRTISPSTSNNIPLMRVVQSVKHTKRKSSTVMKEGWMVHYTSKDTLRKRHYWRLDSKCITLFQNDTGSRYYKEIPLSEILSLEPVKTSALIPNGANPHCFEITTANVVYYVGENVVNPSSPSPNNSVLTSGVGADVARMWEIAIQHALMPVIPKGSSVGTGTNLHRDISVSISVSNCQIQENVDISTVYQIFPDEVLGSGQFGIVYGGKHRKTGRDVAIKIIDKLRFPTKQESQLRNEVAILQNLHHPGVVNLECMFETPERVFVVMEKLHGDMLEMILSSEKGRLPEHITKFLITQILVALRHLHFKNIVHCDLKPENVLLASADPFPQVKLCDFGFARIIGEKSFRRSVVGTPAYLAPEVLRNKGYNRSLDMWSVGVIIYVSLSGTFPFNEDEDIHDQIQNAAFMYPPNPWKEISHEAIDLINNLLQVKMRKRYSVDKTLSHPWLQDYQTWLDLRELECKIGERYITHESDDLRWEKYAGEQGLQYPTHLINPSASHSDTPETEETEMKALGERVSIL
How it is done: as §1

For another assay, the target named is T6, ROCK 2 (Homo sapiens, UniProt O75116).
T6 construct: lines 1-140) and Reaction Biology
T6 sequence (O75116 whole entry): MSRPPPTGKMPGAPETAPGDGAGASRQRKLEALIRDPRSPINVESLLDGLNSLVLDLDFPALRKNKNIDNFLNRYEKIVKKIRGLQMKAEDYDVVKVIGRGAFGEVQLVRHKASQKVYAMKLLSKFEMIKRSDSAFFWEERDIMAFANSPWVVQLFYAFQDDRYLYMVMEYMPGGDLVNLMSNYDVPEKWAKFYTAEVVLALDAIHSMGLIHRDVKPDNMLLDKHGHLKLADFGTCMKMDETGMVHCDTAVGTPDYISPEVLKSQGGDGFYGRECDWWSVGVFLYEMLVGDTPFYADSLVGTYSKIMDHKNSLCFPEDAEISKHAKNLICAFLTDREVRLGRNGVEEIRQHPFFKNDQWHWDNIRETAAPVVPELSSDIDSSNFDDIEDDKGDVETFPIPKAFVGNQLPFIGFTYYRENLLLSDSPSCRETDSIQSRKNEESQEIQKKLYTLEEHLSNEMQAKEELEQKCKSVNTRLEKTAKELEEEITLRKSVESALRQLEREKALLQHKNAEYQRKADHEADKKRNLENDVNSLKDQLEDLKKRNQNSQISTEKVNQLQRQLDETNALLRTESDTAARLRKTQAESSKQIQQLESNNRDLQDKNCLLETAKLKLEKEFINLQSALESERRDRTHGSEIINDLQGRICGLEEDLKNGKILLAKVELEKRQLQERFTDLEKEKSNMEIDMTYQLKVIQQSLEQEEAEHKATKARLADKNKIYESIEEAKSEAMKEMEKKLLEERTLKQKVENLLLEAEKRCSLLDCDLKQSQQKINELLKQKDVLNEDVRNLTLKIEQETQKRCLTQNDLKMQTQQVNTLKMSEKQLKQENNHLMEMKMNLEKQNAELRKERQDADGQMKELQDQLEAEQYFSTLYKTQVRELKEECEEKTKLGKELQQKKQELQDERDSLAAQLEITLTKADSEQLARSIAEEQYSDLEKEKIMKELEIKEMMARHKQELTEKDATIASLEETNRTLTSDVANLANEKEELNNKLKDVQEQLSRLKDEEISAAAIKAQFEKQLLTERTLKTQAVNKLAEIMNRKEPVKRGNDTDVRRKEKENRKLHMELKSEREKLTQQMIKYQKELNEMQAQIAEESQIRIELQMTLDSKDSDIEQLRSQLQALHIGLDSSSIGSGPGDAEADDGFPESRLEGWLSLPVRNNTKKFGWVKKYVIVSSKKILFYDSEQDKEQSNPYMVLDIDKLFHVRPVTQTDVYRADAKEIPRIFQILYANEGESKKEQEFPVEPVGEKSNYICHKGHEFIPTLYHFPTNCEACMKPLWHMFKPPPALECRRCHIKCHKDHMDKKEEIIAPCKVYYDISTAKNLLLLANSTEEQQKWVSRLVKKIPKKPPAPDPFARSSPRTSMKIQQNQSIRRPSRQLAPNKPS
Here is the method:
as §1

The target of a further assay is T7, WNK1 (Homo sapiens, UniProt Q9H4A3).
T7 construct: lines 1-140) and Reaction Biology
T7 sequence (Q9H4A3 whole entry): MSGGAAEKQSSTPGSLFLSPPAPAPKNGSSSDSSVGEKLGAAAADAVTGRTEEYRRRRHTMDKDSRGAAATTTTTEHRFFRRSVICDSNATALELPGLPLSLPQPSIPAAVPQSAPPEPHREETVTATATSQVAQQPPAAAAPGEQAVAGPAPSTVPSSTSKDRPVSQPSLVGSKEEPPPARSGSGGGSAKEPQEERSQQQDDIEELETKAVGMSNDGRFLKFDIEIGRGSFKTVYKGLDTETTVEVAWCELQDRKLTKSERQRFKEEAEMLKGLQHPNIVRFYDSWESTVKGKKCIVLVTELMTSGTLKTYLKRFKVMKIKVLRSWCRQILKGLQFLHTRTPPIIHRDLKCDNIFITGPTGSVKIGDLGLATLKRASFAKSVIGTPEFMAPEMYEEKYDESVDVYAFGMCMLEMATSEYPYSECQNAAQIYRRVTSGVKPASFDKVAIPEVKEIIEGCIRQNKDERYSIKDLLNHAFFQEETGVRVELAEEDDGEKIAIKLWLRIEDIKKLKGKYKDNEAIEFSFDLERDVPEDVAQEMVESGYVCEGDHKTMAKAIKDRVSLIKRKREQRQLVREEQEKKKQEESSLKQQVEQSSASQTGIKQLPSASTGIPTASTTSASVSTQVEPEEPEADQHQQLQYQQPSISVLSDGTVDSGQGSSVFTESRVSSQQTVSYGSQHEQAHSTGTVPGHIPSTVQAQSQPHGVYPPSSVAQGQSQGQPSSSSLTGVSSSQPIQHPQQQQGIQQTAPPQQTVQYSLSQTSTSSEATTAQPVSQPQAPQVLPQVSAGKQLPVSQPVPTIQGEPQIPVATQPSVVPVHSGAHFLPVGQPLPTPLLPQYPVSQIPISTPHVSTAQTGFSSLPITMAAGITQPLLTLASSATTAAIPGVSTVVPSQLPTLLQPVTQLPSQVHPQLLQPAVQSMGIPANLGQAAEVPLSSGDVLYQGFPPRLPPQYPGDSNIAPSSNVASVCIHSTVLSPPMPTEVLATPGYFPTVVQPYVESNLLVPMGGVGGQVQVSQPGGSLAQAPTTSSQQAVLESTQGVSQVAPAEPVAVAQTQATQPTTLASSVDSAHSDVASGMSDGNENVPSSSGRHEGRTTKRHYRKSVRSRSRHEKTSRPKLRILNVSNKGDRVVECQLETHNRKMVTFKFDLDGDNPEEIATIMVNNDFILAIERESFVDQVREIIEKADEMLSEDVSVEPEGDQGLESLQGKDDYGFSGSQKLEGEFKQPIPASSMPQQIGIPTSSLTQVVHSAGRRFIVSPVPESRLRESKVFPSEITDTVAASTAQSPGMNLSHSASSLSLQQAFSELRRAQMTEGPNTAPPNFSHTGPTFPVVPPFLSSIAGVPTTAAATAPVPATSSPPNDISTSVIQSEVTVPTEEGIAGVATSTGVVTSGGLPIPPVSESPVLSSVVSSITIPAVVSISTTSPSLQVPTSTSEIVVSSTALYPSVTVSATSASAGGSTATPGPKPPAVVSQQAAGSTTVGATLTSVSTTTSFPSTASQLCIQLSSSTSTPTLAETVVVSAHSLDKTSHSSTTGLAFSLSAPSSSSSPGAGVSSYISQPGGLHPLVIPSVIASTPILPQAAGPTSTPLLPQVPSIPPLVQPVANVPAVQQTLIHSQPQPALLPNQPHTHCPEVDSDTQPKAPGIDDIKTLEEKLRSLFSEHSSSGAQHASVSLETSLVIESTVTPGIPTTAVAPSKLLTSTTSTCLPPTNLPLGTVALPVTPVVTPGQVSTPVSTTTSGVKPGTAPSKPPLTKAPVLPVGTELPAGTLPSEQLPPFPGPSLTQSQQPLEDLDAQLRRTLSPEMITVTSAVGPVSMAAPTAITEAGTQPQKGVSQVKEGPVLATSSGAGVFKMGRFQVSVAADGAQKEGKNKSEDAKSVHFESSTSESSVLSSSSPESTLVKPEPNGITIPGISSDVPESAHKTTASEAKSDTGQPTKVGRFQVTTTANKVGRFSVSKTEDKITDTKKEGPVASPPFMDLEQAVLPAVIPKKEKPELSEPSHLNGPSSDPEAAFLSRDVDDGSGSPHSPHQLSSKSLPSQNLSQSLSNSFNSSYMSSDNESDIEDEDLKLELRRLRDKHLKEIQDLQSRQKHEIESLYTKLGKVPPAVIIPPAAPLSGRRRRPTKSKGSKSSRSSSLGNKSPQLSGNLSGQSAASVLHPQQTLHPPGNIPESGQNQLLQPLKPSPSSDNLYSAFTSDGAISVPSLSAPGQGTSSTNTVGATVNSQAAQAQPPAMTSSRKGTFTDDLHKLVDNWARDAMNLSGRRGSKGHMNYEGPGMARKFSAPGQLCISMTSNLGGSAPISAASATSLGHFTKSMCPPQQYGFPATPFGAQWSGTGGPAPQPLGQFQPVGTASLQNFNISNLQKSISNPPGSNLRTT
How it is done:
as §1

T2 sequence (P53779 whole entry): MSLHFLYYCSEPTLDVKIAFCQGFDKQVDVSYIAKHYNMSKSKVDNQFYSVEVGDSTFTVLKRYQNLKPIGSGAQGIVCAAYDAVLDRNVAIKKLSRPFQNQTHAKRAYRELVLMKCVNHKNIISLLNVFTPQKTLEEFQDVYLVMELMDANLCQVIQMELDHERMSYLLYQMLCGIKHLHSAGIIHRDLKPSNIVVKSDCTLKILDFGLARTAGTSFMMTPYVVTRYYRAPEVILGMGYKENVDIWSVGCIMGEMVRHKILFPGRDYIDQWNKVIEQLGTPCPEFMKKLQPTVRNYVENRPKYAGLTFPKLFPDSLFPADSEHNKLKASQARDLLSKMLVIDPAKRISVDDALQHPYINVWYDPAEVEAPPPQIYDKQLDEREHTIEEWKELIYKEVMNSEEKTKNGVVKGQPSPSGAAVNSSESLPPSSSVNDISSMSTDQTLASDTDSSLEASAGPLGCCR
T1 sequence (P11362 22-822): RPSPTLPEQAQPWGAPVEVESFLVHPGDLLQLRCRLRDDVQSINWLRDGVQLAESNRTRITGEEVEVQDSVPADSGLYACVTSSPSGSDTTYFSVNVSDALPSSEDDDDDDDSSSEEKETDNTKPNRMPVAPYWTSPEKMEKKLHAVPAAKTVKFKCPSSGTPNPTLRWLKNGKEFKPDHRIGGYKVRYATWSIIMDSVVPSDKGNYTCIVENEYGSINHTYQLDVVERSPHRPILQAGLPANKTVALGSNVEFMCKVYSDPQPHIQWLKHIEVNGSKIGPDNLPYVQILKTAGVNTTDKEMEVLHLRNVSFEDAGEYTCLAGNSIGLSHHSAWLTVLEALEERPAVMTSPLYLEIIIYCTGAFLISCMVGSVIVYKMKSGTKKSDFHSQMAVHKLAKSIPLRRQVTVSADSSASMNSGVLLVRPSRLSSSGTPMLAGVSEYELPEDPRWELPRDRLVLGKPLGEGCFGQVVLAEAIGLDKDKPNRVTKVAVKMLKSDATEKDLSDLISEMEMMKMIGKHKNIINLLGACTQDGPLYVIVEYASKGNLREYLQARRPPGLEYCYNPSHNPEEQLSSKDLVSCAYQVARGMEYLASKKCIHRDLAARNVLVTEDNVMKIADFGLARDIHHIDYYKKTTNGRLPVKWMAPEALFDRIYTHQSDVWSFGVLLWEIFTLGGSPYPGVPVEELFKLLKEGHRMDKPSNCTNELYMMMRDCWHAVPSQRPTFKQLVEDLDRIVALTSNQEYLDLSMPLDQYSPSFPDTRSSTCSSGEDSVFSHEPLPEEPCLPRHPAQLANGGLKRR

In the case of `COCCOc1ccc(-c2cn(-c3ccccc3)c3nc[nH]c(=O)c23)cc1` [DMX-5804, 5-[4-(2-methoxy-ethoxy)-phenyl]-7-phenyl-3,7-dihydro-pyrrolo[2,3-d]pyrimidin-4-one], the remaining activity at 1 µM worked out at 69% at FGF-R1; 127% at JNK3; 46% on MST2; 106% at NEK2a; 102% at PKD1; 104% on ROCK 2. Moreover, on WNK1, the remaining activity at 1 µM was determined as 106%.
Consider `Oc1ncnc2c1c(-c1ccccc1)cn2-c1ccccc1` [F1386-0303, 5,7-diphenyl-7H-pyrrolo[2,3-d]pyrimidin-4-ol], for which the remaining activity at 1 µM on FGF-R1 was 99%; at JNK3 it was 92%; on MST2, 63%; at NEK2a, 108%; on PKD1, 103%; at ROCK 2, 132%. The remaining activity at 1 µM on WNK1 was 109%.
As a reminder, the residual activity is the signal under treatment as a percentage of the control signal. For the compound `Nc1ncc(C(=O)NC2CN(C(=O)C3CC3)C2)c2ccc(-c3cccc(F)c3)nc12` [GNE-495], the residual activity at FGF-R1 (1 μM) was 119%; at JNK3 (1 μM) it was 73%; on MST2 (1 μM), 76%; at NEK2a (1 μM), 85%; on PKD1 (1 μM), 68%; at ROCK 2 (1 μM), 82%. For the same compound, the residual activity on WNK1 (1 μM) is reported as 102%.
As to `O=C1Nc2ccc(I)cc2/C1=C/c1cc(Br)c(O)c(Br)c1` [GW5074], the remaining activity at 1 µM at FGF-R1 turned out to be 89%; at JNK3, 65%; on MST2, 93%; at NEK2a, 8%; on PKD1, 66%; on ROCK 2, 56%. For the same compound, the remaining activity at 1 µM at WNK1 came out at 94%.
Regarding `O=C1Cc2c([nH]c3ccc(Br)cc23)-c2ccccc2N1` [Kenpaullone], the remaining activity at 1 µM was 108% on FGF-R1; 87% on JNK3; 63% on MST2; 89% on NEK2a; 100% on PKD1; 62% at ROCK 2. At WNK1, the remaining activity at 1 µM was 92%.

The record behind these values is article PMC6458995, “MAP4K4 Inhibition Promotes Survival of Human Stem Cell-Derived Cardiomyocytes and Reduces Infarct Size In Vivo” (Cell Stem Cell, 2019).
